Experiments:
[1] = molecular target: T1, ALK (Homo sapiens, UniProt Q9UM73); test: KINOMEscan Max; format: binding
T1 construct: DNA tag (qPCR label); purchased Ambit Kinomescan (contract screening)
Method in brief: (§1)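 Quantitative PCR of the DNA tag reports competition between test compound and an immobilized, active-site directed ligand for binding to each DNA-tagged kinase.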

[2] = molecular target: T2, CLK4 (Homo sapiens, UniProt Q9HAZ1); test: KINOMEscan Max; format: binding
T2 construct: DNA tag (qPCR read-out); purchased Ambit Kinomescan
Method in brief: as §1

[3] = molecular target: T3, CSF1R (Homo sapiens, UniProt P07333); test: KINOMEscan Max; format: binding
T3 construct: purchased Ambit (KINOMEscan Max panel service)
T3 sequence (P07333 20-972): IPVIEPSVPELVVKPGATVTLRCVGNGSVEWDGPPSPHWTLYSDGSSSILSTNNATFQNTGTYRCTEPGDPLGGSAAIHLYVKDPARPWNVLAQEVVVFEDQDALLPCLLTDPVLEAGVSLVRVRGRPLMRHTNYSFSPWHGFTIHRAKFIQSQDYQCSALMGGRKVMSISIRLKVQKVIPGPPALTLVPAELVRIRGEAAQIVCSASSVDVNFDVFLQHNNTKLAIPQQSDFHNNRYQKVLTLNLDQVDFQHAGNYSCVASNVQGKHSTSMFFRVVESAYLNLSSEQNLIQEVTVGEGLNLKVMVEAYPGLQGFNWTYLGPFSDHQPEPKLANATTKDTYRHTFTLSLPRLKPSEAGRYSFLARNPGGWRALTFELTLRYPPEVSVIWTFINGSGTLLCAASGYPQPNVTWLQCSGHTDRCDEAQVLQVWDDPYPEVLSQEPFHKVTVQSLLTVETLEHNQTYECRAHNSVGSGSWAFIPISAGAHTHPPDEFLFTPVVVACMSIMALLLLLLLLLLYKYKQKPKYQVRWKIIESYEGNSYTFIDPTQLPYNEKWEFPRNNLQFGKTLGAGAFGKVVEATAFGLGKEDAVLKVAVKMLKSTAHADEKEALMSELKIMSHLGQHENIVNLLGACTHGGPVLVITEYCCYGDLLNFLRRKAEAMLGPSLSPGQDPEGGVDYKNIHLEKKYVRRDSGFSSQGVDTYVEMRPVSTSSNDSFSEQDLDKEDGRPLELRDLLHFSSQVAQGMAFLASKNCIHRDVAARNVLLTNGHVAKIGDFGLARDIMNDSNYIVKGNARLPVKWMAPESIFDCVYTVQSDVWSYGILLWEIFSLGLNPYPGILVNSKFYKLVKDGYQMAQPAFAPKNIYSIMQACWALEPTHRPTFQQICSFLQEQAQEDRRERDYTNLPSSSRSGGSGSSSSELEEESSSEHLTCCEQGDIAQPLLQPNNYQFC
Method in brief: as §1

[4] = molecular target: T4, EGFR(L747-E749del. A750P) (Homo sapiens, UniProt P00533, A750P/DEL747-749); test: KINOMEscan Max; format: binding; conditions: 1 μM
T4 construct: purchased Ambit (KINOMEscan Max panel service)
T4 sequence (P00533 with tags, fused parts or gaps DEL747-749/A750P): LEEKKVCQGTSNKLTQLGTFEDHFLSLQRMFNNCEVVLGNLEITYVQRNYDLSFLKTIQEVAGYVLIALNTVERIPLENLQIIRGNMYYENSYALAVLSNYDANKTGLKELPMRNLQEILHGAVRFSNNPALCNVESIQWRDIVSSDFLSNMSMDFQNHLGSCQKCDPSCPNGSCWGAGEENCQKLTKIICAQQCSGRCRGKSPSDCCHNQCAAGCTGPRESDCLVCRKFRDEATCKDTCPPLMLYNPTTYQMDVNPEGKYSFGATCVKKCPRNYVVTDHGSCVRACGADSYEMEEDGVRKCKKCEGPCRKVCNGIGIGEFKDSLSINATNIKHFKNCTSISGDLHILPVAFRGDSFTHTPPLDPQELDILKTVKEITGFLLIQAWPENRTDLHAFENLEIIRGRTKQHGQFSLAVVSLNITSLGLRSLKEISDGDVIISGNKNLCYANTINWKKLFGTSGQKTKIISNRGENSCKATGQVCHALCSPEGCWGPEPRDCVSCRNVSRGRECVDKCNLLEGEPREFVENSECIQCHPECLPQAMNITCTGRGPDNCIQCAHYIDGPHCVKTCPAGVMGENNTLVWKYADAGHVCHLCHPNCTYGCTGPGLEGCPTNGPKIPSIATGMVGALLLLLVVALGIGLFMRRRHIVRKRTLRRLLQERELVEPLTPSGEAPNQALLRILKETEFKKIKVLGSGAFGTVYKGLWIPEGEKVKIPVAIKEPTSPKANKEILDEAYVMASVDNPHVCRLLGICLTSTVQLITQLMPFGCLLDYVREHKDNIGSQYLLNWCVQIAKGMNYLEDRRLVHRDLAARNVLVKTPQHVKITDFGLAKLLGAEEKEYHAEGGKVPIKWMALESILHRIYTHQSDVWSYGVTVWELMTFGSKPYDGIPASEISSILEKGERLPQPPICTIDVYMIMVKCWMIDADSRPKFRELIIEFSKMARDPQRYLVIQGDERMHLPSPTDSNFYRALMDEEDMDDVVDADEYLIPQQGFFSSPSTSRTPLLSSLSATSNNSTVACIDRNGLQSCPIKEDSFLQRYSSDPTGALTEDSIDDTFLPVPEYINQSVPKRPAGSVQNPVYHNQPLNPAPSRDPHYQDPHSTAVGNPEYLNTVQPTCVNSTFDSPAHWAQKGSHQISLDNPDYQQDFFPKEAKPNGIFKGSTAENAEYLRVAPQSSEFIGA
Method in brief: as §1

[5] = molecular target: T5, EPHA6 (Homo sapiens, UniProt Q9UF33); test: KINOMEscan Max; format: binding
T5 construct: purchased Ambit (KINOMEscan Max panel service)
Method in brief: as §1

[6] = molecular target: T6, EPHB1 (Homo sapiens, UniProt P54762); test: KINOMEscan Max; format: binding
T6 construct: purchased Ambit (KINOMEscan Max panel service)
Method in brief: as §1

[7] = molecular target: ERK3 (Homo sapiens, UniProt Q16659); test: KINOMEscan Max; format: binding
Method in brief: as §1

[8] = molecular target: T7, FLT1 (Homo sapiens, UniProt P17948); test: KINOMEscan Max; format: binding
T7 construct: purchased Ambit Kinomescan (contract panel, KINOMEscan Max)
Method in brief: as §1

[9] = molecular target: T8, IRAK3 (Homo sapiens, UniProt Q9Y616); test: KINOMEscan Max; format: binding
T8 construct: purchased Ambit (KINOMEscan Max service)
Method in brief: as §1

[10] = molecular target: T9, KIT(V559D.V654A) (Homo sapiens, UniProt P10721, V559D/V654A); test: KINOMEscan Max; format: binding
T9 construct: purchased Ambit Kinomescan (contract panel)
Method in brief: as §1

[11] = molecular target: LIMK1 (Homo sapiens, UniProt P53667); test: KINOMEscan Max; format: binding
Method in brief: as §1

[12] = molecular target: T10, LOK (Homo sapiens, UniProt O94804); test: KINOMEscan Max; format: binding; conditions: 1 μM
T10 construct: purchased Ambit Kinomescan (contract panel)
Method in brief: as §1

[13] = molecular target: T11, MEK4 (Homo sapiens, UniProt P45985); test: KINOMEscan Max; format: binding
T11 construct: purchased Ambit (KINOMEscan Max service)
Method in brief: as §1

[14] = molecular target: NEK2 (Homo sapiens, UniProt P51955); test: KINOMEscan Max; format: binding
Method in brief: as §1

[15] = molecular target: NLK (Homo sapiens, UniProt Q9UBE8); test: KINOMEscan Max; format: binding
NLK, sequence (Q9UBE8 whole entry): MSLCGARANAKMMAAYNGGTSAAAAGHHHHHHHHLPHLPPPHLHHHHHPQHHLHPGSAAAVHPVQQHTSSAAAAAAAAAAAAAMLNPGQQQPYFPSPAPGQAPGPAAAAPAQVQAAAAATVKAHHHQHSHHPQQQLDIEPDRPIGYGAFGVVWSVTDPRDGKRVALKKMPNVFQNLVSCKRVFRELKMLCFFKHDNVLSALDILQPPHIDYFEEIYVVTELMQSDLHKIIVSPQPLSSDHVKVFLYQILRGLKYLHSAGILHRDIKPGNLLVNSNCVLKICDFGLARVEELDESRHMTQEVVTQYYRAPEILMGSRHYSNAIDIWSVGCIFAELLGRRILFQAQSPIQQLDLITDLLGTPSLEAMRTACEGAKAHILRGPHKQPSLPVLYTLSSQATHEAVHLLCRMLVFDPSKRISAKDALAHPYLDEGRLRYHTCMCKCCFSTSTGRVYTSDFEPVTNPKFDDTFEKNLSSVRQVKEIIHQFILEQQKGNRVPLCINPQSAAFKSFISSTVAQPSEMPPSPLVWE
Method in brief: as §1

[16] = molecular target: PAK3 (Homo sapiens, UniProt O75914); test: KINOMEscan Max; format: binding
Method in brief: as §1

[17] = molecular target: T12, PIK3CA(M1043I) (Homo sapiens, UniProt P42336, M1043I); test: KINOMEscan Max; format: binding
T12 construct: DNA tag (qPCR read-out)
T12 sequence (P42336 whole entry M1043I): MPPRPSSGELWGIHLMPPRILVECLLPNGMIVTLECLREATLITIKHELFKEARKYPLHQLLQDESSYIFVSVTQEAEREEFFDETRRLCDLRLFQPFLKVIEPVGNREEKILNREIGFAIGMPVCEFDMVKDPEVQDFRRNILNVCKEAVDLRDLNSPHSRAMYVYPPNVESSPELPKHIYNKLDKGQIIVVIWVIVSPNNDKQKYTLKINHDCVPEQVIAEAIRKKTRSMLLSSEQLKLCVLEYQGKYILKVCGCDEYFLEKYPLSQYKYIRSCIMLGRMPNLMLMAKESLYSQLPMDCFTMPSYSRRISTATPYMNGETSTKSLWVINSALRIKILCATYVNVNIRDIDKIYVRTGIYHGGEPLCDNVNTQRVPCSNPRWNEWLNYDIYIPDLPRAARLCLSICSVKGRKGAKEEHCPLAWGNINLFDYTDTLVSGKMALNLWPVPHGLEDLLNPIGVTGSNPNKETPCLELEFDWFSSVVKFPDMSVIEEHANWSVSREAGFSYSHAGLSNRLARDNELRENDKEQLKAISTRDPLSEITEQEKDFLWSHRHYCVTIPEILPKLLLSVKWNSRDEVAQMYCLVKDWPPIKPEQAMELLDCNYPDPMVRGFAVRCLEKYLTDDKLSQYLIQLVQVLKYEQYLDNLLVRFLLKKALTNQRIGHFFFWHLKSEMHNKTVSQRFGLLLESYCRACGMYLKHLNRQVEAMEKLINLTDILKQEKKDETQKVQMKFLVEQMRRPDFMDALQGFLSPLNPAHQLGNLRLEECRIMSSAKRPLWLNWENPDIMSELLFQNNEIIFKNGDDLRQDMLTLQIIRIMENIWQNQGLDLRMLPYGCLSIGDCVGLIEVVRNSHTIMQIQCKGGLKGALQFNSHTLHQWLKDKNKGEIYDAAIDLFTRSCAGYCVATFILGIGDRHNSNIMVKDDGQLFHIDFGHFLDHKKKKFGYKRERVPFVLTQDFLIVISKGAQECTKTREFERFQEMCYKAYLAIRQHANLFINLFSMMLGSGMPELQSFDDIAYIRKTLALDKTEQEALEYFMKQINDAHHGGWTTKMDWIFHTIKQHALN
Method in brief: as §1

[18] = molecular target: T13, PIK3CD (Homo sapiens, UniProt O00329); test: KINOMEscan Max; format: binding
T13 construct: DNA tag (qPCR read-out)
Method in brief: as §1

[19] = molecular target: T14, RAF1 (Homo sapiens, UniProt P04049); test: KINOMEscan Max; format: binding
T14 construct: DNA tag (qPCR read-out)
Method in brief: as §1

[20] = molecular target: SLK (Homo sapiens, UniProt Q9H2G2); test: KINOMEscan Max; format: binding
SLK, sequence (Q9H2G2 whole entry): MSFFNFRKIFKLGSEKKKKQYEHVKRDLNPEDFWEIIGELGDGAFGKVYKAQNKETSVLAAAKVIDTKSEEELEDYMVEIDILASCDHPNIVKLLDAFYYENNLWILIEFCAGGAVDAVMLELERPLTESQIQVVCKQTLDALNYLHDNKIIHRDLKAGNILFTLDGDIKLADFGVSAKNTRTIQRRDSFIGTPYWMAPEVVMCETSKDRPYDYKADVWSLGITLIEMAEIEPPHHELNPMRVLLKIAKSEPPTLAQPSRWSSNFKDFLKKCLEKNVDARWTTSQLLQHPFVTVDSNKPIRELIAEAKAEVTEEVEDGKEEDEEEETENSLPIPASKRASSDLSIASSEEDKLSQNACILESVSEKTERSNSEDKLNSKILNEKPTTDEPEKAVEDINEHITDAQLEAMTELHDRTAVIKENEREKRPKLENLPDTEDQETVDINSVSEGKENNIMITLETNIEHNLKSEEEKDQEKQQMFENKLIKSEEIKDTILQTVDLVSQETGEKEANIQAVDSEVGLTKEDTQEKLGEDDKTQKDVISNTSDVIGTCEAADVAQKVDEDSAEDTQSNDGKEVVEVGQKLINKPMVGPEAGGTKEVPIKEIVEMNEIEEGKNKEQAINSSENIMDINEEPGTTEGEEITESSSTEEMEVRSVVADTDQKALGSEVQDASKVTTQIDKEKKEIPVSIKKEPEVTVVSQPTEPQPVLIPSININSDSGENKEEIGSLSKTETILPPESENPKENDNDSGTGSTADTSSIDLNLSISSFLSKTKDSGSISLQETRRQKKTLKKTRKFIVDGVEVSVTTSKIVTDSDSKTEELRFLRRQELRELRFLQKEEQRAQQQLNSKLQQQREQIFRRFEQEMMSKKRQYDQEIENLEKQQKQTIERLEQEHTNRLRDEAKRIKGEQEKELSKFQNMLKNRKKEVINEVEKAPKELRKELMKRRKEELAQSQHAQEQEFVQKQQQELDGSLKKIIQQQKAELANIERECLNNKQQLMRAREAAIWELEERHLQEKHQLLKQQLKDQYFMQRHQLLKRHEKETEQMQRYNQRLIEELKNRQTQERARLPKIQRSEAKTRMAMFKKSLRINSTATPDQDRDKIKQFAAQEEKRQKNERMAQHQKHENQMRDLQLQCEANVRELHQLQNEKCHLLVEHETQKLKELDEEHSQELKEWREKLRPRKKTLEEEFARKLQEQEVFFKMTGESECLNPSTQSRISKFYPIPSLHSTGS
Method in brief: as §1

[21] = molecular target: T15, TIE1 (Homo sapiens, UniProt P35590); test: KINOMEscan Max; format: binding
T15 construct: purchased Ambit Kinomescan (contract screening service)
Method in brief: as §1

[22] = molecular target: T16, TNK1 (Homo sapiens, UniProt Q13470); test: KINOMEscan Max; format: binding
T16 construct: DNA tag (qPCR read-out)
Method in brief: as §1

[23] = system: EGFR(L747-S572del. P573S); test: KINOMEscan Max; format: binding, human; conditions: 1 μM
Experimental: (§2) Kinase panel profiling was performed at Ambit Kinomescan (http://www.ambitbio.com/technology/) using the “KINOMEscan™ Max” assay platform, a high-throughput method for screening small molecule compounds against large numbers of human kinases. KINOMEscan™ is based on a competition binding assay that quantitatively measures the ability of a compound to compete with an immobilized, active-site directed ligand. The assay is performed by combining three components: DNA-tagged kinase; immobilized ligand; and a test compound. The ability of the test compound to compete with the immobilized ligand is measured via quantitative PCR of the DNA tag. For a description of Ambit's assay protocol, see Fabian et al. A small molecule-kinase interaction map for clinical kinase inhibitors. Nat. Biotechnol. 23, 329-336 (2005).

[24] = system: EGFR(S572-I759del); test: KINOMEscan Max; format: binding, human; conditions: 1 μM
Experimental: as §2

[25] = system: FLT3(ITD); test: KINOMEscan Max; format: binding, human; conditions: 1 μM
Experimental: as §2

[26] = system: ISR1; test: KINOMEscan Max; format: binding, human; conditions: 1 μM
Experimental: as §2

[27] = molecular target: CLK1 (Homo sapiens, UniProt P49759); test: KINOMEscan Max; format: binding; design: DNA tag (qPCR read-out); purchased Ambit Kinomescan
Experimental: as §2

[28] = molecular target: PIM1 (Homo sapiens, UniProt P11309); test: KINOMEscan Max; format: binding; design: DNA tag (qPCR read-out); purchased Ambit Kinomescan
Experimental: as §2

[29] = molecular target: PIM2 (Homo sapiens, UniProt Q9P1W9); test: KINOMEscan Max; format: binding; design: DNA tag (qPCR read-out); purchased Ambit Kinomescan
Experimental: as §2

[30] = molecular target: PIM3 (Homo sapiens, UniProt Q86V86); test: KINOMEscan Max; format: binding; design: DNA tag (qPCR read-out); purchased Ambit Kinomescan
Experimental: as §2

`NCCCNc1nc2c(Br)c(Br)c(Br)c(Br)c2[nH]1` [Compound 11, N-(3-aminopropyl)-4,5,6,7-tetrabromo-1H-benzo[d]imidazol-2-amine] showed a remaining binding at 1 µM [1] of 100%, a remaining binding at 1 µM [2] of 22% and a remaining binding at 1 µM [3] of 100%. The “% binding” value [4] was 100%, the remaining binding at 1 µM [5] was 100% and the remaining binding at 1 µM [6] was 100%. For the same compound, the remaining binding at 1 µM [7] was 75%, the remaining binding at 1 µM [8] was 100% and the remaining binding at 1 µM [9] was 86%. The remaining binding at 1 µM [10] was 100%, the remaining binding at 1 µM [11] was 96% and the “% binding” value [12] was 100%. It also gave a remaining binding at 1 µM [13] of 82%, a remaining binding at 1 µM [14] of 99% and a remaining binding at 1 µM [15] of 100%. It also gave a remaining binding at 1 µM [16] of 91%, a remaining binding at 1 µM [17] of 100% and a remaining binding at 1 µM [18] of 100%. It also gave a remaining binding at 1 µM [19] of 86%, a remaining binding at 1 µM [20] of 92% and a remaining binding at 1 µM [21] of 100%. The remaining binding at 1 µM [22] was 90%, the “% binding” value [23] was 86% and the “% binding” value [24] was 99%. For the same compound, the “% binding” value [25] was 35%, the “% binding” value [26] was 81% and the remaining binding at 1 µM [27] was 5.1%. For the same compound, the remaining binding at 1 µM [28] was 4%, the remaining binding at 1 µM [29] was 0.85% and the remaining binding at 1 µM [30] was 5.2%.
In the case of `CN(C)c1nc2c(Br)c(Br)c(Br)c(Br)c2[nH]1` [DMAT, reference compound], the “Solubility [mM] in phosphate buffer pH 7.4” value is reported as <0.01 mM.

— patent publication US20110230481A2, “DERIVATIVES OF TETRABROMOBENZIMIDAZOLE, A PROCESS FOR THE PREPARATION THEREOF, A PHARMACEUTICAL COMPOSITION COMPRISING THE SAME, A METHOD OF USING THE SAME, A METHOD FOR MODULATING OR REGULATING SERINE/THREONINE KINASES, AND SERINE/THREONINE KINASES MODULATING AGENT” (SELVITA S.A., priority 2009, published 2011)
